Measured values: PubChem BioAssay (NCI)
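Following 48 hours of exposure in 96-well plates, responses at five concentrations were used to interpolate endpoints linearly. GI50 = concentration required for 50% inhibition of growth. TGI marks complete inhibition of growth.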

Tests used:
Experiment in all cases: NCI anticancer screen, dose series, 48 h
SK-MEL-2 melanoma = system: SK-MEL-2 melanoma
U251 CNS = system: U251 CNS
HOP-92 NSCLC = system: HOP-92 NSCLC
UO-31 renal = system: UO-31 renal
HCT-116 colon = system: HCT-116 colon
SF-539 CNS = system: SF-539 CNS
OVCAR-5 ovarian = system: OVCAR-5 ovarian
MALME-3M melanoma = system: MALME-3M melanoma
NCI-H23 lung = system: NCI-H23 lung

Row | SMILES | GI50 (SK-MEL-2 melanoma) [µM] | TGI (SK-MEL-2 melanoma) [µM] | GI50 (U251 CNS) [µM] | TGI (U251 CNS) [µM] | GI50 (HOP-92 NSCLC) [µM] | TGI (HOP-92 NSCLC) [µM] | GI50 (UO-31 renal) [µM] | TGI (UO-31 renal) [µM] | GI50 (HCT-116 colon) [µM] | TGI (HCT-116 colon) [µM] | GI50 (SF-539 CNS) [µM] | TGI (SF-539 CNS) [µM] | GI50 (OVCAR-5 ovarian) [µM] | TGI (OVCAR-5 ovarian) [µM] | GI50 (MALME-3M melanoma) [µM] | TGI (MALME-3M melanoma) [µM] | GI50 (NCI-H23 lung) [µM] | TGI (NCI-H23 lung) [µM]
1 | O=C1C=C(NCCNC(=S)Nc2ccccc2)c2nccc3c2c1nc1ccccc13 | > 100 | > 100 | 58.9 | > 100 | > 100 | > 100 | > 100 | > 100 | 14 | > 100 | 49.1 | > 100 | > 100 | > 100 | 30.1 | > 100 | 31.5 | > 100
2 | CCc1n(Cc2ccc3ccccc3n2)cc[n+]1Cc1ccc2ccccc2n1 | 0.217 | 2.11 | 0.186 | 13.5 | 0.0183 | 0.521 | 21.2 | > 100 | 1.35 | 29.7 | 0.681 | 15.8 | 1.48 | 22.9 | 0.128 | 0.973 | 0.257 | 8.66
3 | Cc1ccc(S(=O)(=O)NCCNC2=CC(=O)c3nc4ccccc4c4ccnc2c34)cc1 | 33 | > 100 | 24.7 | 63.9 | 20.3 | 55.7 | 24.3 | > 100 | 26.9 | > 100 | 19.1 | 38.3 | 25 | 65.4 | 20.5 | 54.5 | 20.1 | 49.5
4 | CCOC(=O)C1=C(c2ccccc2)N(C)c2ccccc2S1 | – | 45.3 | – | 49.1 | – | > 100 | – | 81 | – | 73.3 | – | > 100 | – | > 100 | – | > 100 | – | 60.4
5 | COc1ccc2c(c1)C(=O)c1c-2n(CCCN=[N+]=[N-])c(=O)c2cc(N(C)C)ccc12 | > 100 | > 100 | 19.5 | > 100 | 2.87 | 24.6 | > 100 | > 100 | 77.3 | > 100 | 17.6 | > 100 | > 100 | > 100 | > 100 | > 100 | > 100 | > 100
6 | CCCCCCCCCCCCCCN | – | > 100 | – | > 100 | – | > 100 | – | – | – | > 100 | – | – | – | > 100 | – | > 100 | – | > 100
7 | CCN(CC)CCNc1ccc([N+](=O)[O-])c2sc3ccccc3c(=O)c12 | 1.21 | 5.53 | 0.607 | 2.01 | 1.26 | 3.36 | 0.284 | 1.66 | 0.36 | 1.56 | 3.09 | 10.8 | 3.47 | 15.2 | 1.47 | 3.63 | 1.23 | 2.78
8 | CCCCS(=O)CCC(N)C(=O)O (stereo not drawn) | – | – | – | > 100 | – | – | – | > 100 | – | > 100 | – | > 100 | – | > 100 | – | > 100 | – | > 100
9 | COc1ccc2c(c1)/C(=C\c1cccnc1)C(=O)N2 | 42.3 | > 100 | 7.84 | 47.7 | 26.6 | 69.7 | 25.9 | > 100 | 9.72 | > 100 | – | – | 24.3 | 78.5 | 21 | 47.9 | 16.6 | 35
10 | CCCc1c(CC)c(=N)c2ccccc2n1C | > 100 | > 100 | 47.9 | > 100 | 30.5 | > 100 | > 100 | > 100 | > 100 | > 100 | > 100 | > 100 | > 100 | > 100 | 42.6 | > 100 | 37.7 | > 100
11 | O=[N+]([O-])c1ccc(S(=O)Cc2ccccc2)c([N+](=O)[O-])c1 (stereo not drawn) | 8.54 | 22.3 | 11.4 | 24.3 | – | – | 1.47 | 2.91 | 1.29 | 2.55 | 3.64 | 13.8 | 14.5 | 29.9 | 1.62 | 3.26 | 2.54 | 8.91
12 | O=C1c2ccc([N+](=O)[O-])cc2-c2c1c1ccccc1c(=O)n2CCCNCCCNCCCn1c2c(c3ccc([N+](=O)[O-])cc3c1=O)C(=O)c1ccccc1-2 | 17.3 | 62.3 | 3.42 | 15.3 | – | – | 10.4 | 33.8 | 0.933 | 2.91 | 1.96 | 7 | 3.05 | 11.3 | 5.51 | 41.7 | 1.2 | 3.4
13 | CC[N+](C)(CC)CCC(O)(c1ccccc1)c1ccccc1 | – | > 100 | – | > 100 | – | – | – | > 100 | – | > 100 | – | – | – | > 100 | – | > 100 | – | > 100
14 | OC1c2ccccc2C2(O)C1C(c1ccccc1)C(c1ccccc1)C2(O)c1ccccc1 (stereo not drawn) | – | 23.3 | – | 23.1 | – | 23.9 | – | 55.5 | – | – | – | 26 | – | 26.7 | – | 26.9 | – | 41.7
15 | COC(=O)C(C(=O)C(=O)Nc1ccc(C(F)(F)F)cc1[N+](=O)[O-])c1csc(-n2nc(-c3ccccc3)cc2-c2ccccc2)n1 (stereo not drawn) | – | > 100 | – | > 100 | – | – | – | > 100 | – | > 100 | – | > 100 | – | > 100 | – | > 100 | – | > 100
16 | C/C(=N\O)c1cccc(Nc2cc(-n3ccnn3)c3ccccc3n2)c1 | 15.3 | 29.5 | 19.9 | 62.2 | 13.9 | 38.2 | 16.2 | 37.5 | 14.1 | 27.1 | 19 | 44 | 24.4 | > 100 | – | – | 21.3 | 48.6
